Reference: publication PMC10452033, “The Importance of the “Time Factor” for the Evaluation of Inhibition Mechanisms: The Case of Selected HDAC6 Inhibitors” (Biology, 2023)
One block for each molecule: values may come before it.

Tests used:
[1] = test system: HDAC6 with respect to all other isoforms, including HDAC10; design: method as in PMID 36528061; conditions: cited from earlier work
Human HDAC6 (GST-HDAC6) [2] = target: T1, Human HDAC6 (GST-HDAC6) (Homo sapiens, UniProt Q9UBN7); assay: Kinetics of onset of inhibition of HDAC6, progress curves with Fluor de Lys Green substrate; conditions: for slope factor (s): slope factor of the IC50 fit, Equation (1)
T1 sequence (Q9UBN7 1-1215): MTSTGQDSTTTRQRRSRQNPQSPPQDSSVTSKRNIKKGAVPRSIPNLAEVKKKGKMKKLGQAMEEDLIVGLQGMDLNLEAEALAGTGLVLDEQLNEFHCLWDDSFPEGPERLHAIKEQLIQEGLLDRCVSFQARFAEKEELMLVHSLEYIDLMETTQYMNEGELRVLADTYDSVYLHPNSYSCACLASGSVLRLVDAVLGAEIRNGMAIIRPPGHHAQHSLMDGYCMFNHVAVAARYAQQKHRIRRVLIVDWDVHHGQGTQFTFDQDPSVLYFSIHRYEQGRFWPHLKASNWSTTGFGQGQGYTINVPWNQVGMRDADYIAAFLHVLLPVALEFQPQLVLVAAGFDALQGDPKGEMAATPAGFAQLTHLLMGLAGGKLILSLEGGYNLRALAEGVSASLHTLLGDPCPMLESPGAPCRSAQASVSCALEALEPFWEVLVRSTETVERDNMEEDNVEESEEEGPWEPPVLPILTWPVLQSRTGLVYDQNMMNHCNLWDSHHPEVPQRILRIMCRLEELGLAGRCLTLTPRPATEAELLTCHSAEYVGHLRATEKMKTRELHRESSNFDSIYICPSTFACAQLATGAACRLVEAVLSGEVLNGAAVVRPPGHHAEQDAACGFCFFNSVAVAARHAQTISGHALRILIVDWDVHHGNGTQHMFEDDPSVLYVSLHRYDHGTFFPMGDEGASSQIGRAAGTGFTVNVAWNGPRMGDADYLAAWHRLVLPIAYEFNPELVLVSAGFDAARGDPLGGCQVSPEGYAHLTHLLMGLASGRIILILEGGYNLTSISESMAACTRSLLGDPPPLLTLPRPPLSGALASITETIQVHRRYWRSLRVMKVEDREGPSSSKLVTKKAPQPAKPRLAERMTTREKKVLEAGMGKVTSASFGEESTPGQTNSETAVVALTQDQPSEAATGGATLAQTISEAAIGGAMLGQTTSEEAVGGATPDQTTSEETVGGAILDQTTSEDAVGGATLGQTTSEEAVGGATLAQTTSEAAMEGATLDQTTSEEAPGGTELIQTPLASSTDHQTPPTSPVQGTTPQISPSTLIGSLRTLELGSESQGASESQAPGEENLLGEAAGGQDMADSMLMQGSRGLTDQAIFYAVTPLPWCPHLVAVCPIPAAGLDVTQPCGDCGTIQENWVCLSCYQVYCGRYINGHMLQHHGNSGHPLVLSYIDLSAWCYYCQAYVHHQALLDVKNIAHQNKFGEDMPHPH
Source text: (§1) Human HDAC6, as a chimeric form in which the full-length protein is preceded by glutathione S-transferase (GST), was purchased from BPS Bioscience.
The activity assay described here is based on the use of the commercially available Fluor de Lys Green substrate, which contains an acetylated lysine residue covalently bound through an amide bond to the amino group of a fluorophore, likely a rhodamine derivative. Deacetylation of the lysine residue makes the amide bond susceptible to trypsin cleavage with release of the fluorophore that is accompanied by fluorescence increase.
For activity assays in the absence of inhibitors, measured fluorescence values at different reaction times, after subtraction of the background fluorescence, were analyzed to determine the initial velocity of reactions from the initial linear part of the curve. […] If the onset and relief of inhibition were sufficiently fast, compared to the time of the assay, the steady-state velocity could be calculated from the linear part of the progress curve at long reaction times. […] Thus, we could calculate apparent values of kon (the second-order rate constant for formation of the enzyme–inhibitor complex) and koff (the first-order rate constant for dissociation of the enzyme–inhibitor complex) for a simple E + I ↔ EI equilibrium from Equation (4). From the observed rates of complex formation and dissociation, an apparent dissociation constant of the complex could be calculated (Equation (5); [31, 40]). kobs = kon^app [I] + koff (4) Ki^app = koff/kon^app (5)
The steady-state velocities were used to estimate the IC50 and cooperativity (if any) from the “slope factor” (s) by calculating the percentage residual activity as a function of inhibitor concentration, and fitting to Equation (1).
From jump-dilution assays of the type shown in Figure 1, right panels, the koff was independently calculated through Equation (2) (or from the linear part of the curves) in the presence of saturating substrate, to minimize the possibility that the inhibitor rebinds to the enzyme after dissociation (Table 1).
Aliquots of reactions were stopped at different times with TSA and subsequently developed, as described in detailed methods in Supplementary information. […] The data were fitted to Equation (2) to determine the steady-state velocity values (vs), which were used to calculate IC50 and kobs (Table 1). The initial velocity was set to the value measured in the absence of the inhibitor.

Human HDAC6 (GST-HDAC6) [3] = target: T1, Human HDAC6 (GST-HDAC6); assay: Jump-dilution assay, kinetics of relief of inhibition of HDAC6
Source text: as §1
From the slope of the lines and the intercepts (insets of Figure 1 E,G), one can calculate the apparent rate constants for formation of the inhibited complex and for its dissociation through Equation (4) (Table 1). Through Equation (5), the apparent dissociation constant of the EI complex could be calculated (Table 1). From jump-dilution assays of the type shown in Figure 1, right panels, the koff was independently calculated through Equation (2) (or from the linear part of the curves) in the presence of saturating substrate, to minimize the possibility that the inhibitor rebinds to the enzyme after dissociation (Table 1).
Panels (A,C,E,G): kinetics of onset of inhibition. […] Aliquots of reactions were stopped at different times with TSA and subsequently developed, as described in detailed methods in Supplementary information. […] The data were fitted to Equation (2) to determine the steady-state velocity values (vs), which were used to calculate IC50 and kobs (Table 1). The initial velocity was set to the value measured in the absence of the inhibitor. […] They were used to determine the mechanism of slow-binding inhibition, and estimates of kon, koff and Ki (Table 1). […]

HDAC6 = conditions: cited from earlier work
[4] = test system: zebrafish HDAC6 CD2 (zHDAC6-CD2); design: method as in PMID 36528061; conditions: cited from earlier work
Human HDAC6 = target: T2, Human HDAC6 (Homo sapiens, UniProt Q9UBN7); assay: Yonetani-Theorell analysis of the binding of ITF2357 and ITF3756 to HDAC6; format: biochemical; conditions: with respect to the Fluor de Lys substrate; parallel lines in Yonetani-Theorell plots
T2 sequence (Q9UBN7 1-1215): T1 sequence (Q9UBN7 1-1215)
Source text: Enzymes. Human HDAC6, as a chimeric form in which the full-length protein is preceded by glutathione S-transferase (GST), was purchased from BPS Bioscience.
In this analysis, the substrate concentration (S) is maintained constant at a sub-saturating concentration, and the concentration of one inhibitor (I) is varied in the presence of different levels of the second (J). The reaction velocity at a given I and J concentration pair (vij) depends on the corresponding inhibition constants (KI and KJ) and an interaction factor γ (Equation (7)). If I and J bind to the same site on the enzyme in a mutually exclusive way, the plots of reciprocal velocity as a function of the varied inhibitor concentration, at different constant levels of the second, yield a set of parallel lines because the interaction factor γ→∞ (Equation (8)). In this case, the common slope (Equation (9)) depends on the velocity of the uninhibited reaction (vo) and the dissociation constant of the varying inhibitor (KI). The dependence of the intercepts on the concentration of the inhibitor kept constant at different levels (J) should be linear (Equation (10)). The initial velocity of the inhibited enzyme, and the inhibition constants KI and KJ can be calculated. […]
The time-course of reactions was monitored to calculate the steady-state velocity from the linear part of the curve. […]

Ki (Human HDAC6 (GST-HDAC6) [2]): 8.9 ± 0.23 nM | koff (Human HDAC6 (GST-HDAC6) [2]): 8.33e-05 s⁻¹ | kon (Human HDAC6 (GST-HDAC6) [2]; read-out: kon^app): 9330 M⁻¹ s⁻¹ | slope factor (s) (Human HDAC6 (GST-HDAC6) [2]): 0.96 ± 0.04 | koff (Human HDAC6 (GST-HDAC6) [3]): 0.000108 s⁻¹
Molecule: FC(F)c1nnc(-c2ccc(Cn3cc(-c4ccc(NC5=NCCN5)cc4)nn3)cc2)o1 [Compound 1]
selectivity for HDAC6 with respect to all other isoforms [1]: greater than 10^4 | IC50 (HDAC6): 7.7 nM | observed rate constant for the release from the enzyme in jump-dilution assays [4]: (9.6 ± 1.1) × 10^−3 min^−1 | rate constant for formation of the acyl-hydrazide from Compound 1 [4]: (6.04 ± 0.22)×10^−3 min^−1

Molecule: O=C(NNC(=O)C(F)F)c1ccc(Cn2cc(-c3ccc(NC4=NCCN4)cc3)nn2)cc1 [Compound 1a]
IC50 (HDAC6): 1580 nM

Molecule: NNC(=O)c1ccc(Cn2cc(-c3ccc(NC4=NCCN4)cc3)nn2)cc1 [Compound 1b]
IC50 (HDAC6): 329 nM

time after start of reaction at which steady-state velocity was reached (Human HDAC6 (GST-HDAC6) [2]; reaction started by addition of the enzyme): approximately 15 min | slope factor (s) (Human HDAC6 (GST-HDAC6) [2]): 1.0 ± 0.06 | mechanism of inhibition (Human HDAC6): competitive inhibitor
Molecule: CCN(CC)Cc1ccc2cc(COC(=O)Nc3ccc(C(=O)NO)cc3)ccc2c1 [ITF2357, reference compound]

kinetic behaviour of onset and relief of inhibition (Human HDAC6 (GST-HDAC6) [2]; progress curves and jump-dilution assays): Slow binding | apparent koff (Human HDAC6 (GST-HDAC6) [3]; pre-incubated with 10 nM TSA for 90 min, 100-fold dilution, 25 µM Fluor-de-Lys Green): 0.032 ± 0.008 min‐1
Molecule: [R-(E,E)]-7-[4-(Dimethylamino)phenyl]-N-hydroxy-4,6-dimethyl-7-oxo-2,4-heptadienamide [TSA, reference compound]
